Laboratory results from US10507216B2, “Method for olfactory improvement with saccharide” (priority 2017, dated 2019).

Experiments:
[1] = test system: rat olfactory neuroepithelial cells (ONCs); experiment: Western blot analysis of rat ONCs (βIII tubulin, OMP, Golf, ADCY3 relative to GAPDH); type: cell-based; settings: day 9
Experimental: Olfactory neuroepithelia of rats were isolated from E17 embryos of wistar rats and 40 embryos per trial were used. After isolation, olfactory neuroepithelia were digested in Hanks' balanced salt solution (Roche Molecular Biochemicals, Indianapolis, Ind., USA) containing 0.125% Trypsin/EDTA for 30 minutes at 37° C. The cell suspension was then filtered through a 70 μm cell strainer to eliminate cell aggregates and debris, and adjusted to 24×10^4 cells/mL (equivalent to 5×10^4 cells/cm^2). Finally, a 2 mL cell suspension was added to six-wells coated with 0.85 μg/cm^2 poly-L-lysine (PLL). ONCs were cultured at 37° C. in a humidified 5% CO2 and 95% air atmosphere. Cell morphology was observed under an inverse phase contrast microscope (TS-100, Nikon, Tokyo, Japan) and scanning electron microscope (Hitachi S-4800).
ONC medium comprised DMEM/F12 (Invitrogen), 20 ng/mL bFGF, 20 ng/mL EGF, 2% B27 and 1% penicillin/streptomycin. To prepare the chitosan-containing medium for administration groups, chitosan (C-3646, Sigma, St. Louis, Mo.) was mixed with culture medium (0.1 mg/mL), and adjusted to pH 7.2 with NaOH. Particularly, chitosan solution was prepared by dissolving chitosan in 0.5 M acetic acid.
ONC lysates were obtained from individual culture wells using a RIPA lysis buffer containing protease inhibitor cocktail tablets (Roche Diagnostics GmbH). These samples were then denatured and separated by 12% SDS-PAGE gels, and blotted onto PVDF membranes (Millipore). After blocking in a CIS blocking buffer at room temperature for 60 seconds, the membranes were probed with various primary antibodies at 4° C. overnight. Membranes were incubated with horseradish peroxidase-conjugated secondary antibodies for 1.5 hours, and finally visualized using enhanced chemiluminescence (ECL; Millipore, Billerica, Mass.). After detachment of previous primary antibodies, the membranes were also probed with GAPDH antibodies, which served as an internal control. Images of western blotting were acquired by UVP BioSpectrum 810, and analyzed by Vision Works LS software (UVP, California, USA).
All the measurements were presented as mean±SD. Statistical significance was computed with one-way ANOVA followed by LSD test with p<0.05. All statistical analyses were conducted using Sigma plot v12.5.

[2] = test system: human olfactory neuroepithelial cells (ONCs); experiment: Western blot analysis of human ONCs (OMP, Golf, βIII tubulin); type: cell-based; settings: 0.1 mg/ml monosaccharide monomer, day 9
Experimental: Human olfactory neuroepithelia were harvested from adult olfactory neuroepithelium during endoscopic sinus surgery. Biopsy specimens were transferred into Hank's balanced salt solution (HBSS), minced finely, and then digested with 0.125% Trypsin/EDTA for 30 minutes at 37° C. After digestion, the pellet was collected by centrifuge and resuspended in the iscove's modified dulbecco's media (IMDM; Invitrogen, Calif., USA) with 10% fetal bovine serum and 1% penicillin/streptomycin Finally, they were seeded to six-wells coated with laminin-co-fibronectin for 21 days, incubated in a humidified atmosphere containing 5% CO2 and 95% air. After 21 days, the medium were changed with induction medium. This induction medium is Dulbecco's Modified Eagle Medium: Nutrient Mixture F-12 (DMEM/F12) (Invitrogen, Calif., USA) supplemented with 2% B-27 serum-free supplement. To prepare the chitosan-containing medium for administration groups, chitosan (C-3646, Sigma-Aldrich, St. Louis, Mo.) was mixed with induction medium (0.1 mg/ml), and adjusted to pH 7.2 with NaOH.
ONC lysates were obtained from individual culture wells using a RIPA lysis buffer containing protease inhibitor cocktail tablets (Roche Diagnostics GmbH). […] Images of western blotting were acquired by UVP BioSpectrum 810, and analyzed by Vision Works LS software (UVP, California, USA). […]

[3] = 0.1 mg/ml monosaccharide monomer

| Molecule | expression levels of OMP and Golf [1, 3] | expression levels of OMP [2] | expression levels of OMP and Golf ([1]; 0.1 mg/ml proteoglycan or glycosaminoglycan) |
| --- | --- | --- | --- |
| CC(=O)N[C@H]1C(O)O[C@H](CO)[C@@H](O)[C@@H]1O (stereo partly shown) [GlcNAc, N-acetylglucosamine] | promoted the maturation of ORNs | – | – |
| CC(=O)N[C@@H]1C(O)O[C@H](CO)[C@@H](O)[C@@H]1O (stereo partly drawn) [ManNAc, N-acetyl-D-mannosamine] | promoted the maturation of ORNs | induced positive effects on human ONCs | – |
| N[C@H]1C(O)O[C@H](CO)[C@@H](O)[C@@H]1O (stereo partly shown) [GlcN, glucosamine] | promoted the maturation of ORNs | – | – |
| heparan sulfate proteoglycan [HSPG] | – | – | promoted expression of mature and functional ORNs |
| CC(=O)N[C@H]1C(O)O[C@H](CO)[C@H](O)[C@@H]1O (stereo partly shown) [GalNAc, N-acetylgalactosamine] | promoted the maturation of ORNs | induced positive effects on human ONCs | – |
